Data reported in PubChem BioAssay (NCI).
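These data come from cells grown in 96-well plates and exposed to compound for 48 hours at five concentrations. GI50: concentration for 50% inhibition of growth. At the TGI there is no net growth.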

Assays:
Assay in all cases: NCI anticancer screen, dose series, 48 h
UO-31 renal = tested on: UO-31 renal
NCI-H226 lung = tested on: NCI-H226 lung
KM12 colon = tested on: KM12 colon
SK-MEL-5 melanoma = tested on: SK-MEL-5 melanoma
SF-539 CNS = tested on: SF-539 CNS
U251 CNS = tested on: U251 CNS
HCT-15 colon = tested on: HCT-15 colon
HCT-116 colon = tested on: HCT-116 colon
IGROV1 ovarian = tested on: IGROV1 ovarian
MCF7 breast = tested on: MCF7 breast
NCI/ADR-RES ovarian = tested on: NCI/ADR-RES ovarian
MDA-MB-435 = tested on: MDA-MB-435
LOX IMVI melanoma = tested on: LOX IMVI melanoma
OVCAR-8 ovarian = tested on: OVCAR-8 ovarian
M14 melanoma = tested on: M14 melanoma
HT29 colon = tested on: HT29 colon
SN12C renal = tested on: SN12C renal
MOLT-4 leukemia = tested on: MOLT-4 leukemia
A549 NSCLC = tested on: A549 NSCLC
ACHN renal = tested on: ACHN renal
NCI-H23 lung = tested on: NCI-H23 lung
T-47D breast = tested on: T-47D breast
PC-3 prostate = tested on: PC-3 prostate
BT-549 breast = tested on: BT-549 breast
SK-MEL-2 melanoma = tested on: SK-MEL-2 melanoma
HOP-92 NSCLC = tested on: HOP-92 NSCLC
OVCAR-4 ovarian = tested on: OVCAR-4 ovarian
786-0 renal = tested on: 786-0 renal
CAKI-1 renal = tested on: CAKI-1 renal
UACC-62 melanoma = tested on: UACC-62 melanoma
OVCAR-3 ovarian = tested on: OVCAR-3 ovarian
EKVX NSCLC = tested on: EKVX NSCLC
NCI-H522 lung = tested on: NCI-H522 lung
SK-MEL-28 melanoma = tested on: SK-MEL-28 melanoma
HOP-62 NSCLC = tested on: HOP-62 NSCLC
SF-295 CNS = tested on: SF-295 CNS
HS 578T breast = tested on: HS 578T breast
SW-620 colon = tested on: SW-620 colon
SNB-75 CNS = tested on: SNB-75 CNS
SF-268 CNS = tested on: SF-268 CNS
COLO 205 colon = tested on: COLO 205 colon
MALME-3M melanoma = tested on: MALME-3M melanoma
SNB-19 CNS = tested on: SNB-19 CNS
MDA-MB-231 breast = tested on: MDA-MB-231 breast
SK-OV-3 ovarian = tested on: SK-OV-3 ovarian
DU-145 prostate = tested on: DU-145 prostate
TK-10 renal = tested on: TK-10 renal
NCI-H460 lung = tested on: NCI-H460 lung
OVCAR-5 ovarian = tested on: OVCAR-5 ovarian
UACC-257 melanoma = tested on: UACC-257 melanoma
HCC-2998 colon = tested on: HCC-2998 colon
K-562 leukemia = tested on: K-562 leukemia
RXF 393 renal = tested on: RXF 393 renal

O=c1oc(Cl)c(Cl)c2ccccc12
GI50 (UO-31 renal): 22.4 µM
TGI (UO-31 renal): 47.9 µM
GI50 (NCI-H226 lung): 22.2 µM
TGI (NCI-H226 lung): 42.3 µM
GI50 (KM12 colon): 35.8 µM
TGI (KM12 colon): > 100 µM
GI50 (SK-MEL-5 melanoma): 16.5 µM
TGI (SK-MEL-5 melanoma): 37 µM
GI50 (SF-539 CNS): 17 µM
TGI (SF-539 CNS): 38.5 µM
GI50 (U251 CNS): 21.2 µM
TGI (U251 CNS): 52.1 µM
GI50 (HCT-15 colon): 23.1 µM
TGI (HCT-15 colon): 61.3 µM
GI50 (HCT-116 colon): 31.9 µM
TGI (HCT-116 colon): 71.8 µM
GI50 (IGROV1 ovarian): 23.2 µM
TGI (IGROV1 ovarian): 63.2 µM
GI50 (MCF7 breast): 35.5 µM
TGI (MCF7 breast): > 100 µM
GI50 (NCI/ADR-RES ovarian): 18.1 µM
TGI (NCI/ADR-RES ovarian): 41.3 µM
GI50 (MDA-MB-435): 22.3 µM
TGI (MDA-MB-435): 45.9 µM
GI50 (LOX IMVI melanoma): 17.6 µM
TGI (LOX IMVI melanoma): 51.9 µM
GI50 (OVCAR-8 ovarian): 47.8 µM
TGI (OVCAR-8 ovarian): > 100 µM
GI50 (M14 melanoma): 41.3 µM
TGI (M14 melanoma): > 100 µM
GI50 (HT29 colon): 34.9 µM
TGI (HT29 colon): > 100 µM
GI50 (SN12C renal): 14.8 µM
TGI (SN12C renal): 31.4 µM
GI50 (MOLT-4 leukemia): 9.19 µM
TGI (MOLT-4 leukemia): 78.2 µM
GI50 (A549 NSCLC): 54.2 µM
TGI (A549 NSCLC): > 100 µM
GI50 (ACHN renal): 16.1 µM
TGI (ACHN renal): 39.7 µM
GI50 (NCI-H23 lung): 50.5 µM
TGI (NCI-H23 lung): > 100 µM
GI50 (T-47D breast): 40.6 µM
TGI (T-47D breast): > 100 µM
GI50 (PC-3 prostate): 17.8 µM
TGI (PC-3 prostate): 35.2 µM
GI50 (BT-549 breast): 20.8 µM
TGI (BT-549 breast): 41.2 µM
GI50 (SK-MEL-2 melanoma): 14.1 µM
TGI (SK-MEL-2 melanoma): 44.1 µM
GI50 (HOP-92 NSCLC): 3.25 µM
TGI (HOP-92 NSCLC): 27.9 µM
GI50 (OVCAR-4 ovarian): 30 µM
TGI (OVCAR-4 ovarian): > 100 µM
GI50 (786-0 renal): 19.2 µM
TGI (786-0 renal): 40.4 µM
GI50 (CAKI-1 renal): 21.5 µM
TGI (CAKI-1 renal): 39.6 µM
GI50 (UACC-62 melanoma): 32.9 µM
TGI (UACC-62 melanoma): > 100 µM
GI50 (OVCAR-3 ovarian): 11.7 µM
TGI (OVCAR-3 ovarian): 27.8 µM
GI50 (EKVX NSCLC): 18.8 µM
TGI (EKVX NSCLC): 44.3 µM
GI50 (NCI-H522 lung): > 100 µM
TGI (NCI-H522 lung): > 100 µM
GI50 (SK-MEL-28 melanoma): 46.5 µM
TGI (SK-MEL-28 melanoma): > 100 µM
GI50 (HOP-62 NSCLC): 25.9 µM
TGI (HOP-62 NSCLC): 48.9 µM
GI50 (SF-295 CNS): 39.4 µM
TGI (SF-295 CNS): > 100 µM
GI50 (HS 578T breast): 35.1 µM
TGI (HS 578T breast): 96.2 µM
GI50 (SW-620 colon): 19.7 µM
TGI (SW-620 colon): 56.3 µM
GI50 (SNB-75 CNS): 24.7 µM
TGI (SNB-75 CNS): 59.3 µM
GI50 (SF-268 CNS): 38.2 µM
TGI (SF-268 CNS): > 100 µM
GI50 (COLO 205 colon): 22.8 µM
TGI (COLO 205 colon): 63.7 µM
GI50 (MALME-3M melanoma): 50 µM
TGI (MALME-3M melanoma): > 100 µM
GI50 (SNB-19 CNS): 27.9 µM
TGI (SNB-19 CNS): > 100 µM
GI50 (MDA-MB-231 breast): 24.8 µM
TGI (MDA-MB-231 breast): 68.4 µM
GI50 (SK-OV-3 ovarian): 59.8 µM
TGI (SK-OV-3 ovarian): > 100 µM
GI50 (DU-145 prostate): 18.3 µM
TGI (DU-145 prostate): 38.6 µM
GI50 (TK-10 renal): 82.5 µM
TGI (TK-10 renal): > 100 µM
GI50 (NCI-H460 lung): 55.5 µM
TGI (NCI-H460 lung): > 100 µM
GI50 (OVCAR-5 ovarian): 18.7 µM
TGI (OVCAR-5 ovarian): 57.1 µM
GI50 (UACC-257 melanoma): 93.8 µM
TGI (UACC-257 melanoma): > 100 µM
GI50 (HCC-2998 colon): 44.3 µM
TGI (HCC-2998 colon): 73.9 µM
GI50 (K-562 leukemia): 27.2 µM
TGI (K-562 leukemia): 70.5 µM
GI50 (RXF 393 renal): 24.8 µM
TGI (RXF 393 renal): 52.2 µM
